One block for each molecule: values may come before it.
Assays:
[1] = target: T1, Ec LeuRS (Escherichia coli, UniProt P07813); conditions: leucine activation; 50 mM HEPES pH 7.5, 10 mM MgCl2, 10 μM ATP, 50 mM amino acid, pyrophosphatase
T1 construct: gene leuS

[2] = target: T2, P. horikoshii LeuRS (Pyrococcus horikoshii, UniProt O58698); assay: nitrocellulose filter binding, [^[…]] leucine; conditions: labelled compound; formed in situ from 25 μM [^14C] leucine and 50 μM ATP, presumed leucyl-5′AMP; pH 7.5, 20 mM MgCl2, 37 °C
T2 construct: gene leuS; full length, synthetic gene in pET-11a, E. coli BL21-CodonPlus(DE3)-RIPL, Ni-NTA purified (tag not described), heat step 80 °C
T2 sequence (O58698 1-967): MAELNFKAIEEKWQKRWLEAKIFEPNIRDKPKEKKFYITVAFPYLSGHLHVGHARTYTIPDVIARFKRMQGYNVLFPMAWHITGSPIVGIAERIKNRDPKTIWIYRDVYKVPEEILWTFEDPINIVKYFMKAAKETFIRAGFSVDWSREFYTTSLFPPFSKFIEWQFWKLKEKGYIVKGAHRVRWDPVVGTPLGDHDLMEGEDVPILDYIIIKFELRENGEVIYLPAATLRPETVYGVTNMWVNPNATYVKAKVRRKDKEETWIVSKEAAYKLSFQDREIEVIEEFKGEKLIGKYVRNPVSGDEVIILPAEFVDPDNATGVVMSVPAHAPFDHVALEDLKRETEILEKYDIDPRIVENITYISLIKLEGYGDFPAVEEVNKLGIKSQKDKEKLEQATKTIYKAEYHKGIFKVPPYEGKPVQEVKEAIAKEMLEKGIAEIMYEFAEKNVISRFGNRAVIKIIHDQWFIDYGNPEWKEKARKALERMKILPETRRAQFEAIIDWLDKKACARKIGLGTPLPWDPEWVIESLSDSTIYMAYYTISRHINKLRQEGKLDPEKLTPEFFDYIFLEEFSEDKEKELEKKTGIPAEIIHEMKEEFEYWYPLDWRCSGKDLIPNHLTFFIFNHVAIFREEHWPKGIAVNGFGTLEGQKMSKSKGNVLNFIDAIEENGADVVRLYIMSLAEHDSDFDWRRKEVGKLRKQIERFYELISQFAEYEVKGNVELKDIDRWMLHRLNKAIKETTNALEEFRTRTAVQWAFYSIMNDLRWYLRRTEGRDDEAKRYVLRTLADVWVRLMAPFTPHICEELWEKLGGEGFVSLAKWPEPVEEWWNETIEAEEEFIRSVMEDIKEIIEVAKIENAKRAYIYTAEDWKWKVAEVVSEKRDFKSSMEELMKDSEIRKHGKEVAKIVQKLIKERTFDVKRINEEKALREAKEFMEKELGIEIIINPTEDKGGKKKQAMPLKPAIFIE

[3] = target: T3, LeuAC (LeuRS urzyme), TEV-cleaved (Pyrococcus horikoshii, UniProt O58698); assay: Sephadex G15 size-exclusion co-elution of [^[…]] leucine label; assay type: binding; conditions: labelled compound; formed in situ from [^14C] leucine and ATP, presumed leucyl-5′AMP; 50 mM HEPES pH 7.5, 20 mM MgCl2, 37 °C; only a simulated upper limit for KD
T3 construct: gene leuS; MBP fusion (pMAL-c2x, E. coli), TEV-cleaved but MBP not separated; his-tagged

[4] = substrate: CC(C)C[C@H](N)C(=O)O; assay: purified protein; assay type: biochemical, Pyrococcus horikoshii; conditions: unit not printed beside the value (M inferred), tRNA^Leu and ATP co-substrates, 50 mM HEPES pH 7.5, 10 mM MgCl2

T1 sequence (P07813 whole entry): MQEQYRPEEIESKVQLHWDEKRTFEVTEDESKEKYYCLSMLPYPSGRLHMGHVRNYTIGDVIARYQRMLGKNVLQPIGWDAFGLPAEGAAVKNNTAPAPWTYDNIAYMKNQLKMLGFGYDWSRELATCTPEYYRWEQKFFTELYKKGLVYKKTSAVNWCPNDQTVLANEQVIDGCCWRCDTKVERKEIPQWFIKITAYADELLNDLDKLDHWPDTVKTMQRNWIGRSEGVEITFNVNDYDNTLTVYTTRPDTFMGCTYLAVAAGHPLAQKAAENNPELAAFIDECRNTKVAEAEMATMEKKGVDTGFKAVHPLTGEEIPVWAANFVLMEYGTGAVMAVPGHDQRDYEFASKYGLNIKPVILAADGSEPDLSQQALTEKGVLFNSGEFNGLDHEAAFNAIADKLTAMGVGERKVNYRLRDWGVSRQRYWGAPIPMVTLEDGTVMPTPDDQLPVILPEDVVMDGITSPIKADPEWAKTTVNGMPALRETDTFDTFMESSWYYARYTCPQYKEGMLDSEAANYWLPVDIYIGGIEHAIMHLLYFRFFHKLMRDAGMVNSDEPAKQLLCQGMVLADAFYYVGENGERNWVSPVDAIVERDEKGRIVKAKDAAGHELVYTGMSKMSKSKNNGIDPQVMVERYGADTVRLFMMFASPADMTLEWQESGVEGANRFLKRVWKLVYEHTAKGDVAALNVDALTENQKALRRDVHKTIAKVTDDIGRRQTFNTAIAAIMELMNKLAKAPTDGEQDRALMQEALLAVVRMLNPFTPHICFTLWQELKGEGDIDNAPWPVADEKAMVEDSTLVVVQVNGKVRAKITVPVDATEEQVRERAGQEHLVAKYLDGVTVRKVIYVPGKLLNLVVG

Molecule: Nc1ncnc2c1ncn2[C@@H]1O[C@H](COP(=O)(O)OP(=O)(O)OP(=O)(O)O)[C@@H](O)[C@H]1O [ATP]
single-turnover active-site titration, [^32P] ATP, TLC [1]: Full-length LeuRS from both E. coli and P. horikoshii produce minor amounts of ADP

moles [^14C] leucine/mole enzyme [2]: 0.48 ± 0.13 mol/mol
Molecule: CC(C)C[C@H](N)C(=O)OP(=O)(O)OC[C@H]1O[C@@H](n2cnc3c(N)ncnc32)[C@H](O)[C@@H]1O [leucyl-5′AMP]
Sephadex G15 size-exclusion co-elution of [^14C] leucine label [3]: lower limit on both the stoichiometry and affinity of the active LeuAC•leucyl-5′ AMP complex

B1: P. horikoshii LeuRS (Pyrococcus horikoshii OT3) (protein)
chain: MAELNFKAIEEKWQKRWLEAKIFEPNIRDKPKEKKFYITVAFPYLSGHLHVGHARTYTIPDVIARFKRMQGYNVLFPMAWHITGSPIVGIAERIKNRDPKTIWIYRDVYKVPEEILWTFEDPINIVKYFMKAAKETFIRAGFSVDWSREFYTTSLFPPFSKFIEWQFWKLKEKGYIVKGAHRVRWDPVVGTPLGDHDLMEGEDVPILDYIIIKFELRENGEVIYLPAATLRPETVYGVTNMWVNPNATYVKAKVRRKDKEETWIVSKEAAYKLSFQDREIEVIEEFKGEKLIGKYVRNPVSGDEVIILPAEFVDPDNATGVVMSVPAHAPFDHVALEDLKRETEILEKYDIDPRIVENITYISLIKLEGYGDFPAVEEVNKLGIKSQKDKEKLEQATKTIYKAEYHKGIFKVPPYEGKPVQEVKEAIAKEMLEKGIAEIMYEFAEKNVISRFGNRAVIKIIHDQWFIDYGNPEWKEKARKALERMKILPETRRAQFEAIIDWLDKKACARKIGLGTPLPWDPEWVIESLSDSTIYMAYYTISRHINKLRQEGKLDPEKLTPEFFDYIFLEEFSEDKEKELEKKTGIPAEIIHEMKEEFEYWYPLDWRCSGKDLIPNHLTFFIFNHVAIFREEHWPKGIAVNGFGTLEGQKMSKSKGNVLNFIDAIEENGADVVRLYIMSLAEHDSDFDWRRKEVGKLRKQIERFYELISQFAEYEVKGNVELKDIDRWMLHRLNKAIKETTNALEEFRTRTAVQWAFYSIMNDLRWYLRRTEGRDDEAKRYVLRTLADVWVRLMAPFTPHICEELWEKLGGEGFVSLAKWPEPVEEWWNETIEAEEEFIRSVMEDIKEIIEVAKIENAKRAYIYTAEDWKWKVAEVVSEKRDFKSSMEELMKDSEIRKHGKEVAKIVQKLIKERTFDVKRINEEKALREAKEFMEKELGIEIIINPTEDKGGKKKQAMPLKPAIFIE
notes: full length, synthetic gene in pET-11a, E. coli BL21-CodonPlus(DE3)-RIPL, Ni-NTA purified (tag not described), heat step 80 °C
Km [4]: 5.9 ± 0.8 × 10^−6 M

Reference: paper PMC9026127, “A Leucyl-tRNA Synthetase Urzyme: Authenticity of tRNA Synthetase Catalytic Activities and Promiscuous Phosphorylation of Leucyl-5′AMP” (International Journal of Molecular Sciences, 2022)
